Experimental data: ChEMBL document CHEMBL4482324, “Ash1l inhibitors and methods of treatment therewith” (2017)

Biological target: Histone-lysine N-methyltransferase ASH1L (Homo sapiens, UniProt Q9NR48)
Test: Inhibition of MOCR-fused ASH1L SET-BAH ( 2069 to 2833 amino acids) (unknown origin) expressed as in Escherichia coli BL21 (DE3) T1R cells using SAM and chicken mono/dinucleosomes incubated for 1 hr by scintillation counting assay

IC50 [µM]	SMILES
< 20	NC(=S)c1cc(-c2cn(CCC(F)F)c3cc(CO)ccc23)ccc1O
> 100	NC(=S)c1cccc(-c2cccc(O)c2)c1
< 20	NC(=S)c1cccc(-c2cn(CCC(F)F)c3cc4cc[nH]c4cc23)c1
> 100	Cc1ccc(C(N)=S)cc1-c1ccc(O)cc1
> 100	COc1c(C(N)=S)cccc1-c1ccc(O)cc1
< 20	CCCNc1nnc(NCc2ccc3c(-c4cccc(C(N)=S)c4)cn(C4CCN(S(C)(=O)=O)CC4)c3c2)s1
< 20	NC(=S)c1cccc(-c2cn(CC(CF)CF)c3cc(NC(=O)c4ncc[nH]4)ccc23)c1
20 to 100	NC(=S)c1cccc(-c2cccc3[nH]ccc23)c1
< 20	CSCCn1cc(-c2cccc(C(N)=S)c2)c2ccc(N)cc21
20 to 100	COc1cc(C(N)=S)cc(-c2cn(CCCC(F)(F)F)c3cc(N)ccc23)c1
< 20	CS(=O)(=O)N1CCC(n2cc(-c3cccc(C(N)=S)c3)c3ccc(CNC(=O)C4CNC4)cc32)CC1
< 20	NC(=S)c1cccc(-c2cn(CCC(F)F)c3cc(CNS(=O)(=O)C(F)(F)F)ccc23)c1
< 20	NC(=S)c1ccc(F)c(-c2cn(CCCC(F)(F)F)c3cc(N)ccc23)c1
< 20	NC(=S)c1cccc(-c2cn(CCCC(F)(F)F)c3cc(N)ccc23)c1
< 20	CCCn1cncc1CC(=O)NCc1ccc2c(-c3cccc(C(N)=S)c3)cn(C3CCN(S(=O)(=O)CCC)CC3)c2c1
< 20	CS(=O)(=O)N1CCC(n2cc(-c3cccc(C(N)=S)c3)c3ccc(CNC(=O)Nc4cc[nH]n4)cc32)CC1
< 20	NC(=S)c1cccc(-c2cn(CCC(F)F)c3cc(N4CCOCC4)ccc23)c1
> 100	NC(=S)c1ccsc1
20 to 100	COCc1cc2c(-c3cccc(C(N)=S)c3)ccc(O)c2[nH]1
< 20	NC(=O)c1cccc(-c2cn(CCC(F)F)c3cc(N)ccc23)c1
20 to 100	NC(=S)c1cccc(-c2cn(CO)c3ccccc23)c1
< 20	NC(=S)c1cccc(-n2cc(CCC(F)F)c3cc(CO)ccc32)c1
20 to 100	COC(=O)c1ccc2c(-c3cccc(C(N)=S)c3)c[nH]c2c1
< 20	NC(=S)c1cccc(-c2cn(C3CCN(S(=O)(=O)CCCNC(=O)c4ccc5c(c4)C(=O)OC54c5ccc(O)cc5Oc5cc(O)ccc54)CC3)c3cc(CNC(=O)Cc4c[nH]cn4)ccc23)c1
< 20	NC(=S)c1cccc(-c2cn(CC(=O)C(F)(F)F)c3cc(CO)ccc23)c1
< 20	CCCS(=O)(=O)N1CCC(n2cc(-c3cccc(C(N)=S)c3)c3ccc(N)cc32)CC1

IC50 [µM]	SMILES
< 20	NC(=S)c1cccc(-c2cn(C3CCOCC3)c3cc(CNc4nnc(N)s4)ccc23)c1
< 20	NC(=S)c1c[nH]c(=O)c(-c2cn(CCC(F)F)c3cc(CO)ccc23)c1
< 20	NC(=S)c1cccc(-c2cn(C3CCN(S(N)(=O)=O)CC3)c3cc(N)ccc23)c1
< 20	NC(=S)c1cccc(-c2cn(CC(CF)CF)c3cc(CO)ccc23)n1
> 100	Cc1[nH]c2ccccc2c1-c1cccc(C(N)=S)c1
> 100	Cc1cc(C(N)=S)cc(-c2ccc(O)cc2)c1
< 20	NC(=S)c1cc(-c2cn(CCC(F)F)c3cc(CO)ccc23)c2[nH]ccc2c1
< 20	NC(=S)c1cccc(-c2cn(CC(CCF)CC(F)F)c3cc(N)ccc23)c1 (centres undefined)
< 20	NC(=S)c1cccc(-c2cn(CC(CF)CF)c3cc(NCCc4c[nH]cn4)ccc23)c1
< 20	CCCS(=O)(=O)N1CCC(n2cc(-c3cccc(C(N)=S)c3)c3ccc(CNc4ncc(N)s4)cc32)CC1
20 to 100	CC(=O)NCc1ccc2c(-c3cccc(C(N)=S)c3)c[nH]c2c1
< 20	NC(=S)c1cccc(-c2cn(CCC(F)F)c3cc(NC(=O)CC4CC4)ccc23)c1
36	NCc1ccc2c(-c3cccc(C(N)=S)c3)c[nH]c2c1
< 20	CCCS(=O)(=O)N1CCC(n2cc(-c3cccc(C(N)=S)c3)c3ccc(CNC(=O)Cc4c[nH]cn4)cc32)CC1
< 20	CS(=O)(=O)NCc1ccc2c(-c3cccc(C(N)=S)c3)cn(CCCC(F)(F)F)c2c1
< 20	NC(=S)c1cccc(-c2cn(CC(CF)CF)c3cc(O)ccc23)c1
> 100	NC(=S)c1cccc(-c2ccc(O)cc2)c1
> 100	NC(=S)c1cc(-c2ccc(O)cc2)cs1
> 100	NC(=S)c1cccc(-c2ccc(O)c(F)c2)c1
20 to 100	NC(=S)c1cccc(-c2c[nH]c3cc(C(N)=S)ccc23)c1
< 20	CS(=O)(=O)N1CCC(n2cc(-c3cccc(C(N)=S)c3)c3ccc(N)cc32)CC1
< 20	NC(=S)c1cccc(-c2cn(CC(CF)CF)c3cc(CNCCOCCOCCOCCNc4cccc5c4C(=O)N(C4CCC(=O)NC4=O)C5=O)ccc23)c1 (centres undefined)
< 20	CS(=O)(=O)N1CCC(n2cc(-c3cccc(C(N)=S)c3)c3ccc(CNc4nnc(N)s4)cc32)CC1
> 100	Cc1cc(-c2cccc(C(N)=S)c2)ccc1O
> 100	NC(=S)c1cccc(-c2ccc(OCCOCCNC(=O)c3ccc(-c4c5ccc(=O)cc-5oc5cc(O)ccc45)c(C(=O)O)c3)c3[nH]ccc23)c1
< 20	NC(=S)c1cc(-c2cn(CC(CF)CF)c3cc(CO)ccc23)ccc1F

IC50 [µM]	SMILES
< 20	NC(=S)c1cccc(-c2cn(CC3(F)CC3)c3cc(CO)ccc23)c1
< 20	NC(=S)c1cccc(-c2cn(CCCC(F)(F)F)c3cc(CNCc4c[nH]cn4)ccc23)c1
< 20	CCNc1c[nH]c(CC(=O)NCc2ccc3c(-c4cccc(C(N)=S)c4)cn(C4CCN(S(C)(=O)=O)CC4)c3c2)c1
< 20	NC(=S)c1cc(-c2cn(CCC(F)F)c3cc(CO)ccc23)c2[nH]cnc2c1
> 100	NC(=S)c1cccc(-c2ccc(O)c3c2CCC3O)c1 (centres undefined)
> 100	NC(=S)c1ccc(N)c(-c2cccc3[nH]ccc23)c1
> 100	NC(=S)c1cc(-c2ccc(O)cc2)ccn1
< 20	NC(=S)c1cc(-c2cn(CCC(F)F)c3cc(CO)ccc23)c2scnc2c1
< 20	CCCn1cnc(CC(=O)NCc2ccc3c(-c4cccc(C(N)=S)c4)cn(C4CCN(S(=O)(=O)CCC)CC4)c3c2)c1
< 20	NC(=S)c1cccc(-n2cc(CC(CF)CF)c3cc(N)ccc32)c1
< 20	NC(=S)c1cccc(-c2cn(CC3C(F)(F)COCC3(F)F)c3cc(CO)ccc23)c1
20 to 100	NC(=S)c1cccc(-c2ccc(O)c3[nH]ccc23)c1
< 20	NC(=O)c1cc(-c2cn(CCC(F)F)c3cc(CO)ccc23)ccc1N
> 100	NC(=S)c1cccc(-c2cccc3[nH]c(CO)cc23)c1
> 100	NC(=S)c1cccc(-c2ccc(O)c3c2CCC3=O)c1
< 20	NC(=S)c1cccc(-c2cn(CCCC(F)(F)F)c3cc(CNC(=O)CCc4c[nH]cn4)ccc23)c1
> 100	CN1c2ccccc2CCc2ccc(C(N)=S)cc21
20 to 100	NC(=S)c1cccc(-c2cc(C(F)(F)F)cc3c2ccn3CCO)c1
20 to 100	NC(=S)c1cccc(-c2cn(CCCC(F)(F)F)c3cc(CN4CCNCC4)ccc23)c1
< 20	NC(=S)c1cccc(-c2cn(CCC(F)F)c3cc4c(cc23)CCNC4)c1
< 20	NC(=S)c1cccc(-c2cn(C3CCN(S(=O)(=O)C(F)(F)F)CC3)c3cc(CNC(=O)Cc4ccc[nH]4)ccc23)c1
< 20	NC(=S)c1cccc(-c2cn(C3CCCCC3O)c3cc(CO)ccc23)c1 (centres undefined)
20 to 100	CNCc1ccc2c(-c3cccc(C(N)=S)c3)c[nH]c2c1
< 20	CS(=O)(=O)N1CCC(n2cc(-c3cccc(C(N)=S)c3)c3ccc(CNC(=O)Cc4[nH]cc5ccccc45)cc32)CC1
< 20	NC(=S)c1cccc(-c2cn(C3CNC3)c3cc(CO)ccc23)c1
< 20	NC(=S)c1cccc(-c2cn(CC3C(F)(F)CC3(F)F)c3cc(CO)ccc23)c1

IC50 [µM]	SMILES
< 20	NC(=S)c1cccc(-c2cn(CCC(F)F)c3cc(CO)cc(F)c23)c1
< 20	NC(=S)c1cccc(-n2cc(CC(CF)CF)c3cc(CO)ccc32)c1
< 20	NC(=S)c1cccc(-c2cn(CC3(O)CCC3)c3cc(CO)ccc23)c1
> 100	NCc1ccnc(-n2cccc2)c1
20 to 100	Cn1cc(-c2cccc(C(N)=S)c2)c2ccccc21
< 20	NC(=S)c1cccc(-c2cn(CCC(F)F)c3cc(N)ccc23)c1
20 to 100	NC(=O)C1CCN(Cc2ccc3c(-c4cccc(C(N)=S)c4)cn(CCCC(F)(F)F)c3c2)CC1
< 20	NC(=S)c1cccc(-c2cn(CCCC(F)(F)F)c3cc(N)ccc23)n1
> 100	NC(=S)c1cccc(-c2cccc3[nH]ncc23)n1
< 20	NC(=S)c1cccc(-c2cn(CC(CF)CF)c3cc(CO)ccc23)c1
20 to 100	NC(=S)c1cccc(-c2cn(Cc3cn[nH]c3)c3cc(N)ccc23)c1
< 20	NC(=S)c1cccc(-c2cn(CCC(F)F)c3cc(CF)ccc23)c1
< 20	NC(=S)c1cccc(-c2cn(CC(CF)CF)c3cc(NC(CO)CO)ccc23)c1
20 to 100	NCc1cccc2c(-c3cccc(C(N)=S)c3)c[nH]c12
> 100	O=C1NCc2c1cccc2-c1ccc(O)cc1
< 20	NC(=S)c1cccc(-c2cn(C3CCN(S(=O)(=O)CCNC(=O)COc4cccc5c4C(=O)N(C4CCC(=O)NC4=O)C5=O)CC3)c3cc(CNc4nnc(N)s4)ccc23)c1 (centres undefined)
22	NCCn1cc(-c2cccc(C(N)=S)c2)c2ccccc21
20 to 100	NC(=S)c1cccc(-c2c[nH]c3cc(N)ccc23)c1
> 100	NC(=S)c1cccc(-c2c[nH]c3cnc(N)cc23)c1
< 20	NC(=S)c1cccc(-c2cn(CCC(F)F)c3cc(C(F)F)ccc23)c1
< 20	NC(=S)c1cccc(-c2cn(C3CCCC3)c3cc(N)ccc23)c1
< 20	NC(=S)c1cccc(-c2cn(C3CCOCC3)c3cc(CNC(=O)Cc4c[nH]cn4)ccc23)c1
< 20	NC(=S)c1cccc(-c2cn(CCC(F)F)c3cc(CO)ccc23)n1
> 100	Cc1cc(O)ccc1-c1cccc(C(N)=S)c1
< 20	CC1(Cn2cc(-c3cccc(C(N)=S)c3)c3ccc(CO)cc32)CC1
< 20	NC(=S)c1cccc(-c2cn(CC(F)(F)F)c3cc(N)ccc23)c1
